Experimental data as given in patent US12371432B2, “Haloallylamine compounds and application thereof” (TransThera Sciences (Nanjing), Inc., priority 2019, dated 2025).
Structures can show the parent of a compound that is named as a salt. Where two headings read alike, the source gives them in different places.

What was measured:
Rat PK evaluation = type: in vivo; details: plasma, SD rats; for bioavailability: n=3, read-out: F % (absolute bioavailability); for clearance: n=3, read-out: Cl_obs iv (clearance rate) (converted); for Vd: n=3, read-out: Vz_obs iv (apparent volume of distribution); for Tmax: n=3, median, read-out: Tmax po (time of maximum observed plasma concentration)
Description: Animal Administration and Sample Collection:
The study compounds A1, A6, A32, A41 and A42 were each dissolved in normal saline to prepare solutions. The solutions of the compounds were separately administered to SD rats by intragastric administration at a dose of 5.0 mg/kg. Time points for blood collection were 15 min, 30 min, 1 h, 2 h, 4 h, 6 h, 8 h and 24 h.
The study compounds A1, A6, A32, A41 and A42 were each dissolved in normal saline to prepare solutions. The solutions of the compounds were separately administered to SD rats by intravenous push at a dose of 1.0 mg/kg. Time points for blood collection were 5 min, 15 min, 30 min, 1 h, 2 h, 4 h, 6 h, 8 h and 24 h.
Venous catheterization was performed the day before the administration. Subsequent to the administration, about 300 μL of blood was collected from the jugular vein and put into anticoagulation tubes containing EDTA-K2. Preparation was performed within 30 min after the blood collection. Plasma samples were obtained by centrifugation at 8,000 rpm for 6 min at 4° C., and were stored in a −80° C. refrigerator before plasma testing.
(1) the samples to be tested were taken out of the −80° C. refrigerator, naturally thawed at room temperature and then swirled for 5 min;
(2) 20 μL of plasma sample was accurately pipetted into a 1.5 mL centrifuge tube;
(3) 200 μL of internal standard working solution (solution of tolbutamide in methanol) with a concentration of 100 ng/mL was added, and uniform mixing was performed;
(4) after 5 min of swirling, centrifugation was performed at 12,000 rpm for 5 min;
(5) 50 μL of supernate was accurately pipetted into a 96-well plate added with 150 μL water/well in advance;
(6) uniform mixing was performed by swirling for 5 min, followed by LC-MS/MS assay.
Analyst 1.6.3 from AB Sciex was used to output concentration results of tested compounds. Microsoft Excel was used to calculate parameters such as mean value, standard deviation and variation coefficient (excluding those outputted directly by Analyst 1.6.3). Pharsight Phoenix 6.1 software NCA was adopted to calculate PK parameters (Tmax was median).

rhAOC1 = biological target: T1, rhAOC1 (Homo sapiens, UniProt P19801); test: Selectivity against rhAOC1 enzyme (Biological Example 1); type: biochemical; details: Table 1; histamine substrate, Amplex Red/HRP
T1 construct: purchased R&D
T1 sequence (P19801 20-751): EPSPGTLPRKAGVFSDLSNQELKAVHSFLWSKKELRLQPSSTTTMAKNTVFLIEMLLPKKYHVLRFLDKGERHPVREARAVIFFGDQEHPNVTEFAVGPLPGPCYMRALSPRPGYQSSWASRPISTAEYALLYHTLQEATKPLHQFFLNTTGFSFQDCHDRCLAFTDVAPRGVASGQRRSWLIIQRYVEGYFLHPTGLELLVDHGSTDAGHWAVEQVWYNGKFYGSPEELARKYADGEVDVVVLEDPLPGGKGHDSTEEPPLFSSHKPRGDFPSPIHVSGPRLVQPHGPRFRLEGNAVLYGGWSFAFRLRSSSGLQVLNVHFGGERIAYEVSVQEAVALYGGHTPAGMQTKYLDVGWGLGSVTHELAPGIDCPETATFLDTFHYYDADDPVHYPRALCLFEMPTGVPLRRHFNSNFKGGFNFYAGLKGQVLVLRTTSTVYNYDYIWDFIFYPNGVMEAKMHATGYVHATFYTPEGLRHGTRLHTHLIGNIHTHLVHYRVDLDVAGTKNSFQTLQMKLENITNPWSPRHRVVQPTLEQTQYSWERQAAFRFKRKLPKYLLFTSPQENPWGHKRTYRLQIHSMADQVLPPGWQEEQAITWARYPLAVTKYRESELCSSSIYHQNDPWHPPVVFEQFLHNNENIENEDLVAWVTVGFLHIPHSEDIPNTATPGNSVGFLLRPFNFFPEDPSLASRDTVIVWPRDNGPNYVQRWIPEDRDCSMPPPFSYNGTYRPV
Description: 2. Selectivity of Compounds Against rhAOC1 Enzyme
(1) Instrument, Consumable and Reagent
Microplate reader (Perkin Elmer, Nivo 5S), black unclear-bottom 96-well plate (Corning) and rhAOC1 (R&D)
(2) Preparation of Concentration Gradient Compound Solutions
An appropriate amount of the compound to be tested was taken, dissolved in DMSO to 10 mM and then stored. Before the study, an appropriate amount of mother liquor of the 10 mM compound to be tested was taken and gradiently diluted 3-fold with DMSO, 10 concentration gradients in total. Each concentration gradient was then diluted 10-fold with 0.1 M of PBS.
(3) Preparation of Enzyme Solutions
An appropriate amount of rhAOC1 mother liquor with a concentration of 0.441 mg/mL was taken and diluted with an appropriate amount of 50 mM HEPES buffer solution to obtain enzyme solutions of 4× concentrations.
(4) Preparation of Substrate Mixtures of 2× Concentrations
An appropriate amount of histamine was weighed and dissolved with 50 mM of HEPES buffer solution to obtain 20 mM of histamine solution. The histamine solution was added with 2 mM of Amplex Red mother liquor and 500 U/mL of HRP mother liquor and diluted with 50 mM of HEPES buffer solution to obtain substrate mixtures of 2× concentrations.
10 μL compound solutions of different concentrations, 25 μL rhAOC1 enzyme solutions of 4× concentrations and 15 μL of 50 mM HEPES buffer solution were first added into a 96-well plate, shaken to be mixed uniformly and then incubated at 37° C. for 30 min. 50 μL substrate mixtures of 2× concentrations were then added into each well, and the microplate reader was immediately used to detect fluorescence intensity of each well with 580 nm (20 nm) exciting light and 620 nm (10 nm) emission light for 5 min each time, 30 min in total. […]
V: fluorescence change rate; Ft: fluorescence reading at time point t; F0: initial fluorescence reading; Time: duration t; Vcmpd: fluorescence change rate of tested compound; Vmax: Max hole fluorescence change rate. […]

[1] = IV 1 mg/kg, n=3, read-out: AUCinf iv (area under plasma concentration-time curve 0-∞)
[2] = IV 1 mg/kg, n=3, read-out: tz1/2 iv (terminal half-life) (converted)
[3] = PO 5 mg/kg, n=3, read-out: AUCinf po (area under plasma concentration-time curve 0-∞)
[4] = PO 5 mg/kg, n=3, read-out: tz1/2 po (terminal half-life) (converted)

Compound	bioavailability (Rat PK evaluation; IV 1 mg/kg, PO 5 mg/kg)	AUC(0-inf) (Rat PK evaluation; [1])	clearance (Rat PK evaluation; IV 1 mg/kg)	Vd (Rat PK evaluation; IV 1 mg/kg)	half-life (Rat PK evaluation; [2])	Tmax (Rat PK evaluation; PO 5 mg/kg)	AUC(0-inf) (Rat PK evaluation; [3])	half-life (Rat PK evaluation; [4])	IC50 (rhAOC1)
Cl.NC/C(=C\F)Cn1cc2c(c1Cl)CCN(C1CC1)C2=O [Compound A42 hydrochloride, (E)-2-(2-(aminomethyl)-3-fluoroallyl)-1-chloro-5-cyclopropyl-2,5,6,7-tetrahydro-4H-pyrrolo[3,4-c]pyridin-4-one]	151%	591 ng·h/mL	29.5 mL/min/kg	1.29 L/kg	31.8 min	60 min	4480 ng·h/mL	79.8 min	–
CCN1CCc2nn(C/C(=C/F)CN)cc2C1=O [Compound A6 hydrochloride, (E)-2-(2-(aminomethyl)-3-fluoroallyl)-5-ethyl-2,5,6,7-tetrahydro-4H-pyrazolo[4,3-c]pyridin-4-one]	76.3%	445 ng·h/mL	37.8 mL/min/kg	2.38 L/kg	43.8 min	30 min	1700 ng·h/mL	65.4 min	–
Cl.NC/C(=C\F)Cn1cc2c(c1Br)CCN(C1CC1)C2=O [Compound A32 hydrochloride, (E)-2-(2-(aminomethyl)-3-fluoroallyl)-1-bromo-5-cyclopropyl-2,5,6,7-tetrahydro-4H-pyrrolo[3,4-c]pyridin-4-one]	173%	572 ng·h/mL	29.2 mL/min/kg	1.2 L/kg	28.8 min	15 min	4950 ng·h/mL	45 min	–
NC/C(=C\F)Cn1ncc2c1CCN(C1CC1)C2=O [Compound A2 hydrochloride, (E)-1-(2-(aminomethyl)-3-fluoroallyl)-5-cyclopropyl-1,5,6,7-tetrahydro-4H-pyrazolo[4,3-c]pyridin-4-one]	–	–	–	–	–	–	–	–	> 10 µM
NC/C(=C\F)Cn1cc2c(n1)CCN(C1CC1)C2=O [Compound A1, (E)-2-(2-(aminomethyl)-3-fluoroallyl)-5-cyclopropyl-2,5,6,7-tetrahydro-4H-pyrazolo[4,3-c]pyridin-4-one]	87%	545 ng·h/mL	30.8 mL/min/kg	2.31 L/kg	52.2 min	120 min	2370 ng·h/mL	70.2 min	22.1 µM
NC/C(=C\F)Cn1cc2c(=O)n(C3CC3)ccc2n1 [Compound A41, (E)-2-(2-(aminomethyl)-3-fluoroallyl)-5-cyclopropyl-2,5-dihydro-4H-pyrazolo[4,3-c]pyridin-4-one]	61.9%	531 ng·h/mL	31.5 mL/min/kg	1.53 L/kg	33.6 min	60 min	1640 ng·h/mL	107 min	–
